Assay results reported in patent US20030059511A1, “Sweetener compositions and uses thereof” (AJINOMOTO CO., INC., priority 1999, published 2003).
Where a SMILES comes first, the peptide text is derived from it.

experiment: Taste characteristics in a cola drink (9 items, similarity index vs cola drink containing 10% sucrose); assay type: in vivo, human; settings: non-carbonated cola drink, PSE 10%, vs cola drink with 10% sucrose; smaller = closer to sucrose; 8 panelists
Description: The following experiments were performed in the same way as that of Example 2. Instead of aqueous solution, the cola drink of each of derivatives 1 to 9 having a sweetness level equivalent to that of PSE 10% was prepared, and compared with the cola drink containing 10% sucrose. The evaluation method and so on were same as that of Example 2.
When carbon dioxide is blown in the cola drink, the carbonated cola drink is prepared, however, the taste of the cola drink can be compared more easily in that without carbon dioxide. Thus the sensory evaluation of non-carbonated cola drink was performed.
The composition of the cola drink employed was same as that of Example 1.
(§1) The similarity indexes were calculated as those of aqueous solutions. The smaller the similarity index becomes, the better the taste balances, and the closer the taste is to the taste characteristics (quality) of sucrose. The total taste becomes preferable. The similarity indexes of each derivatives are shown as follows. […]
The following experiments were conducted in the same way as that of Example 15. Instead of aqueous solution, the cola drink of each of derivatives 1 to 9 having a sweetness level equivalent to that of PSE 10% was prepared, and compared with the cola drink containing 10% sucrose. All of the evaluation method and so on were same as those of Example 15.
When carbon dioxide is blown in the cola drink, the carbonated cola drink is prepared, however, the taste of the cola drink can be compared more easily in that without carbon dioxide. Thus the non-carbonated cola drink was organoleptically evaluated.
The composition of the cola drink employed was same as that of Example 14.
as §1, with “(quality)of” for “(quality) of”, “each of the” for “each”

With `CC1=CC(=O)[N-]S(=O)(=O)O1.[K+]` [Acesulfame K, reference compound] the Similarity index was ~2.0.

experiment: Equations for calculating sweetness intensity and values calculated from them; assay type: in vivo, human; settings: 20° C., pH 2.8
Description: For example, when preparing a solution having a intensity of sweetness equivalent to that of 10% sucrose, wherein 80% of the 10% of intensity of sweetness is from the sweetener component A and the residual 20% is from the sweetener component B, the sweetness ratio is A:B=8:2. When the sweetening magnification relative to sucrose varies depending on the composition and the concentration of the sweetener component is varied even if it is a same sweetener component (in this case, an exponential curve can be prepared and used for calculation), the objective weight of the sweetener component can be calculated. For example, if the equation for converting sweetness intensity (the exponential curve) component A is Y=aX^b, and the equation for converting sweetness intensity (the exponential curve)of component B is Y=cX^d, the weight ratio of the components A and B in the ratio A:B=8:2, can be determined using the following calculation, where Y is a concentration equivalent to that of sucrose (PSE %), and X is the sweetener component concentration (g/100 ml):
(§2) Equations for calculating sweetness intensity in the cola drink (pH 2.8, 20° C.) are as follows, wherein Y denotes the concentration equivalent to that of sucrose (g/100 ml) and X denotes the concentration of the sweetener (g/100 ml), respectively.
With regard to Acesulfame K, the magnification of sweetness intensity was determined according to the following equation for calculating sweetness intensity.
[Y: concentration equivalent to that of sucrose (g/100ml); X: concentration of Acesulfame K (g/100 ml)]
By using the equation for calculating sweetness intensity in the cola drink (refer to Example 4) and the equation for calculating sweetness intensity of Aspartame (refer to the monthly Journal “Food Chemical” August, page 35, 1997), the necessary amounts of those were calculated. In case of Aspartame, the values at 20° C., pH2.8 were used.
The equation for calculating sweetness intensity of derivative 1 in the aqueous solution is as follows.
Where, the calculation of the sweetness was made by using the equation for calculating sweetness intensity of derivative 4 Y=58775X^1.04. When Y=6.3%, X=0.00015 g/100 ml, When Y=5.1%, X=0.00012 g/100 ml.
as §2, with “Examples for equations” for “Equations”, “(pH2.8,” for “(pH 2.8,”, “follows, and another equations can be prepared in the same manner,” for “follows,”

For `COC(=O)[C@H](Cc1ccccc1)NC(=O)[C@@H](N)CC(=O)O` [Aspartame, reference compound] (H-Asp-Phe-OMe), the “X, concentration of the sweetener when Y=0.5” value was 0.00072 g/100 ml.

For `COC(=O)[C@H](Cc1ccccc1)NC(=O)[C@@H](N)CC(=O)O` [Aspartame, reference compound] (H-Asp-Phe-OMe), the “X, concentration of the sweetener when Y=9” value was 0.04726 g/100 ml.

same assay, conditions: calculated; block ice of Example 12

For `COC(=O)[C@H](Cc1ccccc1)NC(=O)[C@@H](N)CC(=O)O` [Aspartame, reference compound] (H-Asp-Phe-OMe), the “magnification of the sweetness intensity at PSE 5%” value was 130 times.

same assay, conditions: calculated; sweetener for tabletop use

Point of comparison: `COC(=O)[C@H](Cc1ccccc1)NC(=O)[C@@H](N)CC(=O)O` [Aspartame, reference compound] (H-Asp-Phe-OMe), “magnification of sweetness intensity at PSE 0.5%” value 360 times. Against it:
- OC[C@@H](O)[C@@H](O)CO [Erythritol, reference compound] — lower, 0.75 times

same assay, conditions: cola drink, pH 2.8, 20° C.

With `COC(=O)[C@H](Cc1ccccc1)NC(=O)[C@@H](N)CC(=O)O` [Aspartame, reference compound] (H-Asp-Phe-OMe) the “X, concentration of the sweetener when Y=2” value was 0.0053 g/100 ml.

With `COC(=O)[C@H](Cc1ccccc1)NC(=O)[C@@H](N)CC(=O)O` [Aspartame, reference compound] (H-Asp-Phe-OMe) the “X, concentration of the sweetener when Y=5” value was 0.0202 g/100 ml.

For `COC(=O)[C@H](Cc1ccccc1)NC(=O)[C@@H](N)CC(=O)O` [Aspartame, reference compound] (H-Asp-Phe-OMe), the “X, concentration of the sweetener when Y=8” value was 0.0398 g/100 ml.

experiment: not given; settings: reported in JP-A-8-503206 / JP-B-47-31031; cited from earlier work

Point of comparison: `COC(=O)[C@H](Cc1ccccc1)NC(=O)[C@H](CC(=O)O)NCCC(C)(C)C` [Neotame], “sweetness intensity, times that of sucrose by weight” value 10000 times. Against it:
- COC(=O)[C@H](Cc1ccccc1)NC(=O)[C@@H](N)CC(=O)O [Aspartame, reference compound] (H-Asp-Phe-OMe) — lower, 200 times

same assay, conditions: values used for calculation in Example 5; cited from earlier work

Point of comparison: `C[C@@H](NC(=O)[C@@H](N)CC(=O)O)C(=O)NC1C(C)(C)SC1(C)C` [Alitame], “magnification used for the sweetness intensity of the another sweetener with a high intense sweetness” value 2000 times. Against it:
- O=C1NS(=O)(=O)c2ccccc21 [Saccharine] — lower, 190 times
- O=C1NS(=O)(=O)c2ccccc21.[Na] [Sodium Saccharine] — lower, 190 times
- C=C1C[C@@]23CC[C@H]4[C@@](C)(CCC[C@@]4(C)C(=O)O[C@@H]4O[C@H](CO)[C@@H](O)[C@H](O)[C@H]4O)[C@@H]2CC[C@]1(O[C@@H]1O[C@H](CO)[C@@H](O)[C@H](O)[C@H]1O[C@@H]1O[C@H](CO)[C@@H](O)[C@H](O)[C@H]1O)C3 [Stevioside] — lower, 140 times
- CC1(C)[C@@H](O[C@H]2O[C@H](C(=O)[O-])[C@@H](O)[C@H](O)[C@H]2O[C@@H]2O[C@H](C(=O)O)[C@@H](O)[C@H](O)[C@H]2O)CC[C@]2(C)[C@H]3C(=O)C=C4[C@@H]5C[C@@](C)(C(=O)[O-])CC[C@]5(C)CC[C@@]4(C)[C@]3(C)CC[C@@H]12.[Na+].[Na+] [disodium glycyrrhizinate] — lower, 100 times
- O=S(=O)([O-])NC1CCCCC1.[Na+] [sodium cyclamate] — lower, 30 times
- OC[C@H]1O[C@H](O[C@]2(CCl)O[C@H](CCl)[C@@H](O)[C@@H]2O)[C@H](O)[C@@H](O)[C@H]1Cl [suclarose] — lower, 400 times
- Thaumatin — lower, 850 times

same assay, conditions: values used for calculation in Example 17; sucrose = 1; cited from earlier work

Point of comparison: `OC[C@@H](O)[C@H](O)[C@@H](O)CO` [xylitol], “magnification of sweetness intensity (numerical values in brackets)” value 1. Against it:
- O=C[C@H](O)[C@@H](O)[C@H](O)CO [D-xylose] — lower, 0.4
- OC[C@@H](O)[C@@H](O)CO [Erythritol, reference compound] — lower, 0.75
- O=C(CO)[C@@H](O)[C@H](O)[C@H](O)CO [fructose] — higher, 1.4
- OC[C@@H](O)[C@@H](O[C@@H]1O[C@H](CO)[C@H](O)[C@H](O)[C@H]1O)[C@H](O)[C@@H](O)CO [lactitol] — lower, 0.35
- OC[C@H]1O[C@@H](O[C@H]2[C@H](O)[C@@H](O)C(O)O[C@@H]2CO)[C@H](O)[C@@H](O)[C@H]1O (stereo partly drawn) [lactose] — lower, 0.2
- OC[C@H]1O[C@H](O[C@H]2[C@H](O)[C@@H](O)[C@H](O)O[C@@H]2CO)[C@H](O)[C@@H](O)[C@@H]1O [malt sugar] — lower, 0.3
- OC[C@@H](O)[C@@H](O[C@H]1O[C@H](CO)[C@@H](O)[C@H](O)[C@H]1O)[C@H](O)[C@@H](O)CO [maltitol] — lower, 0.75
- OC[C@@H](O)[C@@H](O)[C@H](O)[C@H](O)CO [mannitol] — lower, 0.6
- OC[C@H]1O[C@H](OC[C@H]2OC(O)(CO)[C@@H](O)[C@@H]2O)[C@H](O)[C@@H](O)[C@@H]1O (stereo partly drawn) [paratinose] — lower, 0.4
- OC[C@@H](O)[C@@H](O)[C@H](O)[C@@H](O)CO [sorbitol] — lower, 0.75
- OC[C@H]1O[C@H](O[C@H]2O[C@H](CO)[C@@H](O)[C@H](O)[C@H]2O)[C@H](O)[C@@H](O)[C@@H]1O [trehalose] — lower, 0.45
- isomerized lactose — lower, 0.6
- paratinit — lower, 0.45
